From PubChem BioAssay (NCI)
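In this assay, cells in 96-well plates receive the compound at five concentrations for 48 hours. Endpoints are linearly interpolated between the surrounding concentrations. GI50: concentration for 50% inhibition of growth. At the TGI there is no net growth.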

Legend:
Assay in all cases: NCI-60 cell line screen, 48 h
[1] = tested on: 786-0 renal
[2] = tested on: A498 renal
[3] = tested on: A549 NSCLC
[4] = tested on: ACHN renal
[5] = tested on: BT-549 breast
[6] = tested on: CAKI-1 renal
[7] = tested on: CCRF-CEM leukemia
[8] = tested on: COLO 205 colon
[9] = tested on: DU-145 prostate
[10] = tested on: EKVX NSCLC
[11] = tested on: HCC-2998 colon
[12] = tested on: HCT-116 colon
[13] = tested on: HCT-15 colon
[14] = tested on: HL-60(TB) leukemia
[15] = tested on: HOP-62 NSCLC
[16] = tested on: HOP-92 NSCLC
[17] = tested on: HS 578T breast
[18] = tested on: HT29 colon
[19] = tested on: IGROV1 ovarian
[20] = tested on: K-562 leukemia
[21] = tested on: KM12 colon
[22] = tested on: LOX IMVI melanoma
[23] = tested on: M14 melanoma
[24] = tested on: MALME-3M melanoma
[25] = tested on: MCF7 breast
[26] = tested on: MDA-MB-231 breast
[27] = tested on: MDA-MB-435
[28] = tested on: MOLT-4 leukemia
[29] = tested on: NCI-H226 lung
[30] = tested on: NCI-H23 lung
[31] = tested on: NCI-H460 lung
[32] = tested on: NCI-H522 lung
[33] = tested on: NCI/ADR-RES ovarian
[34] = tested on: OVCAR-3 ovarian
[35] = tested on: OVCAR-4 ovarian
[36] = tested on: OVCAR-5 ovarian
[37] = tested on: OVCAR-8 ovarian
[38] = tested on: PC-3 prostate
[39] = tested on: RPMI-8226 leukemia
[40] = tested on: RXF 393 renal
[41] = tested on: SF-268 CNS
[42] = tested on: SF-295 CNS
[43] = tested on: SF-539 CNS
[44] = tested on: SK-MEL-2 melanoma
[45] = tested on: SK-MEL-28 melanoma
[46] = tested on: SK-MEL-5 melanoma
[47] = tested on: SK-OV-3 ovarian
[48] = tested on: SN12C renal
[49] = tested on: SNB-19 CNS
[50] = tested on: SNB-75 CNS
[51] = tested on: SW-620 colon
[52] = tested on: T-47D breast
[53] = tested on: TK-10 renal
[54] = tested on: U251 CNS
[55] = tested on: UACC-257 melanoma
[56] = tested on: UACC-62 melanoma
[57] = tested on: UO-31 renal
[58] = tested on: SR leukemia

COc1ccc(-c2cc(-c3cn[nH]c3-c3ccccn3)ccn2)cc1
GI50 [1]: > 25 µM
TGI [1]: > 25 µM
GI50 [2]: > 25 µM
TGI [2]: > 25 µM
GI50 [3]: > 25 µM
TGI [3]: > 25 µM
GI50 [4]: > 25 µM
TGI [4]: > 25 µM
GI50 [5]: > 25 µM
TGI [5]: > 25 µM
GI50 [6]: > 25 µM
TGI [6]: > 25 µM
GI50 [7]: > 25 µM
TGI [7]: > 25 µM
GI50 [8]: > 25 µM
TGI [8]: > 25 µM
GI50 [9]: > 25 µM
TGI [9]: > 25 µM
GI50 [10]: > 25 µM
TGI [10]: > 25 µM
GI50 [11]: > 25 µM
TGI [11]: > 25 µM
GI50 [12]: > 25 µM
TGI [12]: > 25 µM
GI50 [13]: > 25 µM
TGI [13]: > 25 µM
GI50 [14]: > 25 µM
TGI [14]: > 25 µM
GI50 [15]: > 25 µM
TGI [15]: > 25 µM
GI50 [16]: > 25 µM
TGI [16]: > 25 µM
GI50 [17]: > 25 µM
TGI [17]: > 25 µM
GI50 [18]: > 25 µM
TGI [18]: > 25 µM
GI50 [19]: > 25 µM
TGI [19]: > 25 µM
GI50 [20]: 14 µM
TGI [20]: > 25 µM
GI50 [21]: > 25 µM
TGI [21]: > 25 µM
GI50 [22]: > 25 µM
TGI [22]: > 25 µM
GI50 [23]: > 25 µM
TGI [23]: > 25 µM
GI50 [24]: > 25 µM
TGI [24]: > 25 µM
GI50 [25]: > 25 µM
TGI [25]: > 25 µM
GI50 [26]: > 25 µM
TGI [26]: > 25 µM
GI50 [27]: > 19.2 µM
TGI [27]: > 25 µM
GI50 [28]: > 25 µM
TGI [28]: > 25 µM
GI50 [29]: > 25 µM
TGI [29]: > 25 µM
GI50 [30]: > 25 µM
TGI [30]: > 25 µM
GI50 [31]: > 25 µM
TGI [31]: > 25 µM
GI50 [32]: > 25 µM
TGI [32]: > 25 µM
GI50 [33]: > 25 µM
TGI [33]: > 25 µM
GI50 [34]: > 25 µM
TGI [34]: > 25 µM
GI50 [35]: > 25 µM
TGI [35]: > 25 µM
GI50 [36]: > 25 µM
TGI [36]: > 25 µM
GI50 [37]: > 25 µM
TGI [37]: > 25 µM
GI50 [38]: > 25 µM
TGI [38]: > 25 µM
GI50 [39]: > 25 µM
TGI [39]: > 25 µM
GI50 [40]: > 25 µM
TGI [40]: > 25 µM
GI50 [41]: > 25 µM
TGI [41]: > 25 µM
GI50 [42]: > 25 µM
TGI [42]: > 25 µM
GI50 [43]: > 25 µM
TGI [43]: > 25 µM
GI50 [44]: > 25 µM
TGI [44]: > 25 µM
GI50 [45]: > 25 µM
TGI [45]: > 25 µM
GI50 [46]: > 25 µM
TGI [46]: > 25 µM
GI50 [47]: > 25 µM
TGI [47]: > 25 µM
GI50 [48]: > 25 µM
TGI [48]: > 25 µM
GI50 [49]: > 25 µM
TGI [49]: > 25 µM
GI50 [50]: > 25 µM
TGI [50]: > 25 µM
GI50 [51]: > 25 µM
TGI [51]: > 25 µM
GI50 [52]: > 25 µM
TGI [52]: > 25 µM
GI50 [53]: > 25 µM
TGI [53]: > 25 µM
GI50 [54]: > 25 µM
TGI [54]: > 25 µM
GI50 [55]: > 25 µM
TGI [55]: > 25 µM
GI50 [56]: > 25 µM
TGI [56]: > 25 µM
GI50 [57]: 20.4 µM
TGI [57]: > 25 µM

CSCCCNC(=O)c1csc(-c2csc(CCN)n2)n1
TGI [1]: > 100 µM
TGI [3]: > 100 µM
TGI [4]: > 100 µM
TGI [5]: > 100 µM
TGI [6]: > 100 µM
TGI [7]: > 100 µM
TGI [8]: > 100 µM
TGI [9]: > 100 µM
TGI [10]: > 100 µM
TGI [11]: > 100 µM
TGI [12]: > 100 µM
TGI [13]: > 100 µM
TGI [14]: > 100 µM
TGI [15]: > 100 µM
TGI [16]: > 100 µM
TGI [17]: > 100 µM
TGI [18]: > 100 µM
TGI [19]: > 100 µM
TGI [20]: > 100 µM
TGI [21]: > 100 µM
TGI [22]: > 100 µM
TGI [23]: > 100 µM
TGI [24]: > 100 µM
TGI [25]: > 100 µM
TGI [26]: > 100 µM
TGI [27]: > 100 µM
TGI [28]: > 100 µM
TGI [30]: > 100 µM
TGI [31]: > 100 µM
TGI [32]: > 100 µM
TGI [33]: > 100 µM
TGI [34]: > 100 µM
TGI [35]: > 100 µM
TGI [36]: > 100 µM
TGI [37]: > 100 µM
TGI [38]: > 100 µM
TGI [39]: > 100 µM
TGI [40]: > 100 µM
TGI [41]: > 100 µM
TGI [42]: > 100 µM
TGI [43]: > 100 µM
TGI [45]: > 100 µM
TGI [46]: > 100 µM
TGI [47]: > 100 µM
TGI [48]: > 100 µM
TGI [49]: > 100 µM
TGI [58]: > 100 µM
TGI [51]: > 100 µM
TGI [52]: > 100 µM
TGI [53]: > 100 µM
TGI [54]: > 100 µM
TGI [55]: > 100 µM
TGI [56]: > 100 µM
TGI [57]: > 100 µM
